Results published in patent EP1773779B1, “NICOTINIC RECEPTOR AGONISTS FOR THE TREATMENT OF INFLAMMATORY DISEASES” (Université Laval, priority 2004, dated 2006).

Columns and labels:
[1] = test system: Ovalbumin-sensitized animals; experiment: Lung resistance to metacholine in mouse model of asthma (Flexi-vent); type: in vivo, mice; details: ASM-002 4mg/kg intra-nasally 3 days and 10 minutes prior to challenge; Salbutamol 10 minutes before; Fig. 31
Protocol: Lung response to a broncho-constrictive agent, metacholine, was measured by a Flexi-vent® apparatus. Ovalbumin-sensitized animals were treated intra-nasally with ASM-002 (4mg/kg) during 3 days and 10 minutes prior to the metacholine challenge and compared to untreated OVA-sensitized animals. A negative control group of un-sensitized animals and a positive control group that received Salbutamol (Ventolin) 10 minutes before the metacholine challenge were also included.

[2] = test system: mouse tracheal airway smooth muscle; experiment: Isometric study on isolated mouse tracheal rings pre-contracted with metacholine; details: cumulative doses of ASM-002; Fig. 34, p=0.002
Protocol: Tracheal rings were mounted isometrically to force transducers in organ baths containing Krebs bicarbonate solution at 37°C and bubbled with 95% O2- 5% CO2, pre-contracted with submaximal concentration of metacholine (10^-5) and cumulative doses of the analogs were added to the baths. Changes of tension are recorded. Results are expressed as a percentage of maximal contraction (Fig. 29).
(§1) As described previously, tracheal or bronchial rings were mounted isometrically to force transducers in organ baths containing Krebs bicarbonate solution at 37°C and bubbled with 95% O2- 5% CO2,pre-contracted with submaximal concentration of metacholine cumulative doses of ASM-002 added. Changes of tension are recorded.

[3] = test system: dogs naturally sensitized to the roundworm Ascaris suum; experiment: Dog asthma model: cellular inflammation in bronchoalveolar lavages; type: in vivo; details: ASM-002 8 mg/kg (4mg/kg 2x day in the food), prednisone 1mg/kg 1x day in the food, n = 12; Fig. 32
Protocol: (§2) In this model 12 dogs naturally sensitized to the roundworm Ascaris suum were used in a cross-over study design. Four groups of 3 dogs were randomly formed, exposed to the allergen, and each animal was left either untreated or received alternalively, ASM-002 (4mg/kg 2x day in the food), or prednisone (1mg/kg 1x day in the food), the most commonly used corticosteroid drug used to treat inflammation in asthma.
Cellular inflammation was evaluated in the bronchoalveolar lavages.

[4] = test system: Ovalbumin-sensitized mice; experiment: Lung inflammation in ovalbumin-sensitized mice (cells in broncho-alveolar lavage); type: in vivo; details: intra-nasally 0.5 to 4 mg/kg/d for 3 days, n = 8, Fig. 30
Protocol: Ovalbumin-sensitized mice (ri=8) were challenged with the allergen and simultaneously treated intra-nasally with increasing concentrations of ASM-002 (0.5 to 4 mg/kg/d) for 3 days. The number of cells recovered by broncho-alveolar lavage was used as a measure of lung inflammation.

[5] = test system: bronchial rings from resected human lungs; experiment: Isometric study on human bronchial rings pre-contracted with metacholine; details: cumulative doses of ASM-002; Fig. 36
Protocol: as §1

[6] = test system: Leukotriene C4 (LTC4)production; experiment: LTC4 production by PAF-stimulated blood eosinophils (enzyme immunoassay); type: cell-based, Human; details: for LTC4: pre-incubated 18hours with analogs, then 1 µM PAF, untreated 1725.80
Protocol: Blood eosinophils, the most increased inflammatory cells in asthma, were isolated by negative selection using bead-conjugated anti-CD16 monoclonal antibody and magnetic activating cell sorting. Cells were pre-incubated for 18hours with the various DMPP analogs and then stimulated with 1 µM platelet-activating factor (PAF) to produce LTC4 which was measured by enzyme immunoassay. […] Table 1 Effects of DMPP and analogs on LTC4 release.
Leukotriene C4 (LTC4) is a inflammatory lipid mediator highly produced in asthma, it is released in large amounts by blood eosinophils.
Human blood eosinophils were isolated from blood of asthmatic patients, stimulated in vitro with platelet activating factor (PAF) to produce large amounts of LTC4 , and treated or not with 80 µM ASM-002.

[7] = test system: Tumor necrosis factor (TNF) release; experiment: TNF release by LPS-stimulated human blood monocytes (ELISA); type: cell-based
Protocol: Human monocytes were isolated from the blood of asthmatic patients by Ficoll-paque density gradient, let to adhere to tissue culture plates and stimulated with LPS (100ng/ml) for 18 hours at 37°C with or without increasing concentrations of nicotine. The release of TNF, a potent pro-inflammatory mediator, was measured in the cell culture supernatant by the ELISA method. Results are expressed as a percentage release from LPS-stimulated untreated cells (Fig. 28).
Tumor necrosis factor (TNF) is a mediator released in inflammatory states. Human blood monocytes were stimulated in vitro with lipopolysaccharide (LPS) to produce large amounts of TNF, increasing doses of ASM-002 were added and the levels of TNF were measured (Fig. 37, EC50= 3µM, n=6, p= 0,0045 at 5 µm, 0,0014 at 10 µm and 0,0003 at 50 µm).

[8] = test system: dogs naturally sensitized to the roundworm Ascaris suum; experiment: Dog model of lung hyper-responsiveness (metacholine, lung resistance); type: in vivo; details: 12 hyperresponsive dogs, increasing concentrations of metacholine; Fig. 33
Protocol: as §2
Hyper-responsiveness is described as the capacity of the lung to react (to increase lung resistance) to a non-specific external stimuli like metacholine or to allergens. A hyper-responsive allergen-sensitized dog (asthmatic) will react to lower concentrations of metacholine compared to a non allergic dog. Similarly, improvement in lung hyper-responsivenes is shown by an increase in metacholine concentrations necessary to induce the same level of lung resistance.
Increasing concentrations of metacholine were administered with or without treatment with ASM-002 or Prednisone™ and lung resistance recorded.

[9] = test system: bronchial rings from dog's lungs; experiment: Isometric study on dog bronchial rings pre-contracted with metacholine; details: cumulative doses of ASM-002; Fig. 35, p=0.004
Protocol: as §1

1,1-dimethyl-4-phenylhomopiperazinium iodide [ASM-002]
lung resistance induced by metacholine [1]: significant reduction (return to baseline levels) | relaxing effect on pre-contracted tracheas [2]: relaxing effect | cellular inflammation in the lungs [3]: inhibits significantly the cellular inflammation | ED50, cellular inflammation in the lungs [4]: 0.71 mg/kg | relaxing effect on pre-contracted bronchi [5]: relaxing effect | LTC4 production ([6]; 80 µM, PAF-stimulated eosinophils of asthmatic patients, 6 patients, Fig. 39, p=0.0007): significant inhibition | LTC4 [6]: 246.40 pg/mL | EC50 ([7]; LPS-stimulated human blood monocytes, increasing doses, n=6, Fig. 37, read-out: EC50, inhibition of TNF release): 3000 nM | TNF release ([7]; all drugs at 40 µM, mean of 5 subjects, Fig. 38): inhibits TNF release | dogs with decreased lung resistance / improved hyper-responsiveness [8]: 7 out of 12 | relaxing effect on pre-contracted bronchi [9]: relaxing effect

CCC[N+]1(C)CCN(c2ccccc2)CC1 [ASM-004]
LTC4 [6]: 601.60 pg/mL

CC[N+]1(CC)CCN(c2ccccc2)CC1 [ASM-005]
TNF release ([7]; monocytes from asthmatic patients, LPS (100ng/ml) 18 hours at 37°C, increasing concentrations, Fig. 28): Except for ASM-005, all analogs tested had an inhibitory effect on TNF release

C[N+]1(C)CCN(c2ccccc2)CC1 [DMPP, Dimethylphenylpiperazinium, reference compound]
LTC4 [6]: 545.00 pg/mL

C[C@]12C=CC(=O)C=C1CC[C@@H]1[C@@H]2C(=O)C[C@@]2(C)[C@H]1CC[C@]2(O)C(=O)CO [Prednisone, prednisone, reference compound]
dogs with decreased lung resistance / improved hyper-responsiveness [8]: None of the 12 dogs

CC(C)(C)NCC(O)c1ccc(O)c(CO)c1 (stereo not shown) [Salbutamol, reference compound]
lung resistance induced by metacholine [1]: This effect is similar to that obtained with Salbutamol
